Numbers after ± are expanded uncertainties.
Experiment: xn = mol fraction of the nth substance listed

FC(Cl)(Cl)Cl [trichlorofluoromethane] + FC(F)Cl
Conditions	mass density [kg/m3]
374.97 K, 3116.9 kPa, Liquid, Pycnometric method, x1 = 0.8336	1216.83 ± 2.6
374.97 K, 14051 kPa, Liquid, Pycnometric method, x1 = 0.8336	1279.66 ± 2
374.97 K, 21566 kPa, Liquid, Pycnometric method, x1 = 0.8336	1310.86 ± 1.9
374.97 K, 27844 kPa, Liquid, Pycnometric method, x1 = 0.8336	1332.88 ± 1.7
374.97 K, 35188 kPa, Liquid, Pycnometric method, x1 = 0.8336	1355.43 ± 1.7
374.97 K, 42212 kPa, Liquid, Pycnometric method, x1 = 0.8336	1374.59 ± 1.6
374.97 K, 48936 kPa, Liquid, Pycnometric method, x1 = 0.8336	1391.15 ± 1.6
374.97 K, 56118 kPa, Liquid, Pycnometric method, x1 = 0.8336	1407.35 ± 1.6
374.97 K, 63201 kPa, Liquid, Pycnometric method, x1 = 0.8336	1422.2 ± 1.6
374.97 K, 67438 kPa, Liquid, Pycnometric method, x1 = 0.8336	1430.6 ± 1.6
374.98 K, 99.9 kPa, Fluid (supercritical or subcritical phases), Burnett expansion method, x1 = 0.832	4.192 ± 0.084
374.98 K, 100.73 kPa, Fluid (supercritical or subcritical phases), Burnett expansion method, x1 = 0.832	4.2353 ± 0.085
374.98 K, 141.34 kPa, Fluid (supercritical or subcritical phases), Burnett expansion method, x1 = 0.832	5.9685 ± 0.12
374.98 K, 195.81 kPa, Fluid (supercritical or subcritical phases), Burnett expansion method, x1 = 0.832	8.3248 ± 0.17
374.98 K, 197.47 kPa, Fluid (supercritical or subcritical phases), Burnett expansion method, x1 = 0.832	8.4097 ± 0.17
374.98 K, 216.98 kPa, Fluid (supercritical or subcritical phases), Burnett expansion method, x1 = 0.832	9.2699 ± 0.19
374.98 K, 272.55 kPa, Fluid (supercritical or subcritical phases), Burnett expansion method, x1 = 0.832	11.7304 ± 0.24
374.98 K, 275.03 kPa, Fluid (supercritical or subcritical phases), Burnett expansion method, x1 = 0.832	11.8505 ± 0.24
374.98 K, 301.92 kPa, Fluid (supercritical or subcritical phases), Burnett expansion method, x1 = 0.832	13.0615 ± 0.26
374.98 K, 377.56 kPa, Fluid (supercritical or subcritical phases), Burnett expansion method, x1 = 0.832	16.5279 ± 0.33
374.98 K, 381 kPa, Fluid (supercritical or subcritical phases), Burnett expansion method, x1 = 0.832	16.6977 ± 0.33
374.98 K, 417.41 kPa, Fluid (supercritical or subcritical phases), Burnett expansion method, x1 = 0.832	18.4053 ± 0.37
374.98 K, 518.62 kPa, Fluid (supercritical or subcritical phases), Burnett expansion method, x1 = 0.832	23.2877 ± 0.47
374.98 K, 523.72 kPa, Fluid (supercritical or subcritical phases), Burnett expansion method, x1 = 0.832	23.528 ± 0.47
374.98 K, 569 kPa, Gas, isochoric method, x1 = 0.832	201.277 ± 0.14
374.98 K, 1592.7 kPa, Liquid, Pycnometric method, x1 = 0.8336	1204.96 ± 2.5
374.98 K, 1802 kPa, Liquid, Pycnometric method, x1 = 0.8336	1206.68 ± 2.7
374.98 K, 3500.8 kPa, Liquid, Pycnometric method, x1 = 0.8336	1219.67 ± 2.6
374.98 K, 7519.3 kPa, Liquid, Pycnometric method, x1 = 0.8336	1245.72 ± 2.3
375.98 K, 3481.1 kPa, Liquid, isochoric method, x1 = 0.832	1216.37 ± 0.41
375.98 K, 3481.3 kPa, Liquid, isochoric method, x1 = 0.832	1216.37 ± 0.41
380.97 K, 5662.2 kPa, Liquid, isochoric method, x1 = 0.832	1216.02 ± 0.41
385.97 K, 7843.6 kPa, Liquid, isochoric method, x1 = 0.832	1215.66 ± 0.4
385.97 K, 7845.9 kPa, Liquid, isochoric method, x1 = 0.832	1215.66 ± 0.4
389.97 K, 399.7 kPa, Gas, isochoric method, x1 = 0.832	131.569 ± 0.092
389.97 K, 864.3 kPa, Gas, isochoric method, x1 = 0.832	304.496 ± 0.21
399.96 K, 7536.5 kPa, Liquid, Pycnometric method, x1 = 0.8336	1168.49 ± 2.5
399.96 K, 49152 kPa, Liquid, Pycnometric method, x1 = 0.8336	1348.85 ± 1.5
399.97 K, 617 kPa, Gas, isochoric method, x1 = 0.832	201.042 ± 0.14
399.97 K, 3101 kPa, Liquid, Pycnometric method, x1 = 0.8336	1123.2 ± 3
399.97 K, 3459.9 kPa, Liquid, Pycnometric method, x1 = 0.8336	1127.62 ± 3.1
399.97 K, 3838.5 kPa, Liquid, Pycnometric method, x1 = 0.8336	1132.14 ± 3.1
399.97 K, 5333.9 kPa, Liquid, Pycnometric method, x1 = 0.8336	1148.2 ± 2.9
399.97 K, 14526 kPa, Liquid, Pycnometric method, x1 = 0.8336	1217.33 ± 2
399.97 K, 21523 kPa, Liquid, Pycnometric method, x1 = 0.8336	1253.75 ± 1.8
399.97 K, 28491 kPa, Liquid, Pycnometric method, x1 = 0.8336	1283.14 ± 1.6
399.97 K, 35354 kPa, Liquid, Pycnometric method, x1 = 0.8336	1307.71 ± 1.6
399.97 K, 56281 kPa, Liquid, Pycnometric method, x1 = 0.8336	1366.92 ± 1.4
399.97 K, 63214 kPa, Liquid, Pycnometric method, x1 = 0.8336	1383.07 ± 1.5
399.98 K, 2379 kPa, Liquid, Pycnometric method, x1 = 0.8336	1111.44 ± 2.9
399.98 K, 2438.9 kPa, Liquid, Pycnometric method, x1 = 0.8336	1114.58 ± 2.8
399.98 K, 2791.2 kPa, Liquid, Pycnometric method, x1 = 0.8336	1119.29 ± 3
399.98 K, 41888 kPa, Liquid, Pycnometric method, x1 = 0.8336	1328.37 ± 1.5
404.97 K, 909.7 kPa, Gas, isochoric method, x1 = 0.832	304.283 ± 0.24
404.97 K, 1209.7 kPa, Gas, isochoric method, x1 = 0.832	426.452 ± 0.33
409.97 K, 5121.7 kPa, Liquid, isochoric method, x1 = 0.832	1111.12 ± 0.4
414.97 K, 1254.6 kPa, Gas, isochoric method, x1 = 0.832	426.252 ± 0.35
414.97 K, 1558.2 kPa, Gas, isochoric method, x1 = 0.832	556.482 ± 0.46
415.97 K, 7015.9 kPa, Liquid, isochoric method, x1 = 0.832	1110.75 ± 0.39
419.96 K, 1587.9 kPa, Gas, isochoric method, x1 = 0.832	556.352 ± 0.51
421.97 K, 8915.8 kPa, Liquid, isochoric method, x1 = 0.832	1110.38 ± 0.4
424.96 K, 76.05 kPa, Fluid (supercritical or subcritical phases), Burnett expansion method, x1 = 0.832	2.7936 ± 0.056
424.96 K, 106.8 kPa, Fluid (supercritical or subcritical phases), Burnett expansion method, x1 = 0.832	3.939 ± 0.079
424.96 K, 136.17 kPa, Fluid (supercritical or subcritical phases), Burnett expansion method, x1 = 0.832	5.049 ± 0.1
424.96 K, 191.33 kPa, Fluid (supercritical or subcritical phases), Burnett expansion method, x1 = 0.832	7.117 ± 0.14
424.96 K, 210.5 kPa, Fluid (supercritical or subcritical phases), Burnett expansion method, x1 = 0.832	7.8282 ± 0.16
424.96 K, 268.07 kPa, Fluid (supercritical or subcritical phases), Burnett expansion method, x1 = 0.832	10.034 ± 0.2

Reference: the NIST ThermoML archive (doi:10.1021/je0301040)
